“Also recorded” adds a separate entry of the source.
What was measured:
Format in all cases: cell-based, human
[1] = system: LTNSCs; experiment: Differentiation of LTNSCs or neural rosettes (no NFIA induction) in media containing gliogenic molecules; details: short term, 14 days, no NFIA induction (FIG. 2B)
Experimental: These cells were also TUJ1 negative implying their homogenous nature of being nearly 100% neural stem cells (FIG. 2A). […] In the FBS condition, the expression of gliogenic factors was assessed and expression of SOX9 and NFIA was more enriched when cultured with FBS compared to the other treatments (FIG. 3).
(§1) For immunohistochemistry, cells were fixed in PBS containing 4% paraformaldehyde (EMS) for 10 minutes and permeabilized using PBS with 0.5% Triton-X for 5 minutes and stored in PBS with 0.2% Tween-20. The blocking solution contained 5% donkey serum in PBS with 0.2% Tween-20. Primary antibodies were diluted in the blocking solution and typically incubated overnight at 4 C. Secondary antibodies conjugated to Alexa 488, Alexa 555 or Alexa 647 (Thermo) were added to the cells and incubated for 30 minutes. Nuclei were identified by staining the cells with 4′,6-diamidino-2-phenylindole (DAPI, Thermo).

[2] = system: NFIA-induced LTNSCs; experiment: Astrocyte differentiation of NFIA-induced LTNSCs after doxycycline removal with glial differentiation factors; details: for expression of GFAP after removing the expression of NFIA: NFIA exposed cells, especially in the absence of FGF2 (FIG. 4C)
Experimental: Typically, regionally patterned neural stem cells are infected with lentiviral particles containing FUW-NFIA and FUW-M2-rtTA and induced with doxycycline (dox) one day after infection. Cells are kept in dox media for a minimum of 5 days and then switched to the astrocyte induction media (N2 media with 10 ng/ml HB-EGF (R&D Systems) and 10 ng/ml Leukemia inhibitory factor (Peprotech)) without dox for a minimum of 5 days. Glial progenitors and astrocytes can be isolated using CD44.
as §1

[3] = system: neurogenic NSCs; experiment: Western blot analysis of NFIA in NSCs treated with TGFβ1; details: TGFβ1 for 7 days, Western blot (FIG. 12K)
[4] = system: neurogenic NSCs; experiment: Cell cycle analysis by FACS on NSCs treated with TGFβ1; details: TGFβ1 for 48 hours, FACS (FIG. 12L)
Experimental: Cells were dissociated nuclei were isolated for cell cycle analysis. Propidium Iodine (250 ng/ml) was added to the cells and analyzed by FACS. A minimum of 10,000 events was analyzed per condition. Data acquired was imported and analyzed by the Flowjo software.

[5] = system: neurogenic NSCs; experiment: Immunofluorescence for NFIA and GFAP after TGFβ treatment followed by LIF medium; details: TGFβ followed by LIF-containing medium for 2 weeks (FIG. 12M)
Experimental: as §1

Molecule: LIF: leukemia inhibitory factor, glial-promoting factor
- fate of LTNSCs: neurons (TUJ1/βIII-Tubulin) versus GFAP+ astrocytes [1]: became neurons rather than GFAP+ astrocytes; also recorded: increased expression of the neuronal marker TUJ1 rather than the astrocyte marker GFAP
- GFAP expression (quantitative PCR) ([2]; 5 days dox then dox removal, +LIF versus +EGF/FGF2 (FIG. 10E)): strongly induced
- efficiency of astrocyte differentiation (GFAP+ cells, AQP4-H2B-GFP reporter) after dox removal ([2]; LIF compared with BMP4 or FBS): most efficient in generating GFAP+ cells and activating the AQP4-H2B-GFP reporter
- expression of GFAP after removing the expression of NFIA [2]: enhanced the expression of GFAP

Molecule: TGFβ1: upstream activator of NFIA; transforming growth factor beta
- expression of NFIA [3]: induced the expression of NFIA
- cells in the G1 phase of the cell cycle [4]: enriched for cells in the G1 phase of the cell cycle
- appearance of GFAP+ cells [5]: resulted in the appearance of GFAP+ cells

B1: BMP4: gliogenic molecule, bone morphogenetic protein (protein, UniProt P12644 293-408, looked up)
Bone morphogenetic protein 4: SPKHHSQRARKKNKNCRRHSLYVDFSDVGWNDWIVAPPGYQAFYCHGDCPFPLADHLNSTNHAIVQTLVNSVNSSIPKACCVPTELSAISMLYLDEYDKVVLKNYQEMVVEGCGCR
- fate of LTNSCs: neurons (TUJ1/βIII-Tubulin) versus GFAP+ astrocytes [1]: became neurons rather than GFAP+ astrocytes; also recorded: increased expression of the neuronal marker TUJ1 rather than the astrocyte marker GFAP
- expression of GFAP after removing the expression of NFIA [2]: enhanced the expression of GFAP

Reference: US20200024574A1, “STEM CELL-DERIVED ASTROCYTES, METHODS OF MAKING AND METHODS OF USE” (MEMORIAL SLOAN-KETTERING CANCER CENTER, priority 2017, published 2020)
